Experimental data published in ChEMBL document CHEMBL1130816, “Synthesis and antibacterial activity of O-methyl derivatives of azalide antibiotics: II. 6-OME derivatives via clarithromycin” (1998).
Converted amounts (≈) assume the structure as drawn.

Columns and labels:
Type in all cases: functional
Staphylococcus aureus = experiment: Compound was evaluated for antibacterial activity against Staphylococcus aureus (MB2865) sensitive strain
Enterococcus faecium = experiment: Compound was evaluated for antibacterial activity against Enterococcus faecium (MB5516) sensitive strain
Streptococcus pneumoniae = experiment: Compound was evaluated for antibacterial activity against Streptococcus pneumoniae (MB3957) sensitive strain
Enterococcus faecalis = experiment: Compound was evaluated for antibacterial activity against Enterococcus faecalis (MB5407) sensitive strain
Bacillus subtilis = experiment: Compound was evaluated for antibacterial activity against Bacillus subtilis (MB5586) sensitive strain
Streptococcus pyogenes = experiment: Compound was evaluated for antibacterial activity against Streptococcus pyogenes (MB2874) sensitive strain

MIC (Staphylococcus aureus) [mg/L]	MIC (Enterococcus faecium) [mg/L]	MIC (Streptococcus pneumoniae) [mg/L]	MIC (Enterococcus faecalis) [mg/L]	MIC (Bacillus subtilis) [mg/L]	MIC (Streptococcus pyogenes) [mg/L]	Structure (SMILES)
0.3 (≈ 0.401 µM)	0.125 (≈ 0.167 µM)	< 0.06	2 (≈ 2.67 µM)	0.3 (≈ 0.401 µM)	< 0.06	CC[C@H]1OC(=O)[C@H](C)[C@@H](O[C@H]2C[C@@](C)(OC)[C@H](O)[C@H](C)O2)[C@H](C)[C@@H](O[C@@H]2O[C@H](C)C[C@H](N(C)C)[C@H]2O)[C@](C)(O)C[C@@H](C)N(C)C[C@H](C)[C@@H](O)[C@]1(C)O
32 (≈ 40.5 µM)	8 (≈ 10.1 µM)	4 (≈ 5.06 µM)	32 (≈ 40.5 µM)	2 (≈ 2.53 µM)	0.5 (≈ 0.632 µM)	CC[C@H]1OC(=O)[C@H](C)[C@@H](O[C@H]2C[C@@](C)(OC)[C@@H](OC)[C@@H](C)O2)[C@H](C)[C@@H](O[C@@H]2O[C@H](C)C[C@@H](N(C)C)[C@H]2O)[C@](C)(O)C[C@@H](C)N(C)C[C@H](C)[C@@H](OC)[C@]1(C)OC
2 (≈ 2.62 µM)	1 (≈ 1.31 µM)	0.5 (≈ 0.655 µM)	16 (≈ 21 µM)	1 (≈ 1.31 µM)	0.06 (≈ 0.0786 µM)	CC[C@H]1OC(=O)[C@H](C)[C@@H](O[C@H]2C[C@@](C)(OC)[C@@H](O)[C@@H](C)O2)[C@H](C)[C@@H](O[C@@H]2O[C@H](C)C[C@@H](N(C)C)[C@H]2O)[C@](C)(OC)C[C@@H](C)N(C)C[C@H](C)[C@@H](O)[C@]1(C)O
2 (≈ 2.62 µM)	1 (≈ 1.31 µM)	0.5 (≈ 0.655 µM)	8 (≈ 10.5 µM)	1 (≈ 1.31 µM)	0.12 (≈ 0.157 µM)	CC[C@H]1OC(=O)[C@H](C)[C@@H](O[C@H]2C[C@@](C)(OC)[C@@H](O)[C@@H](C)O2)[C@H](C)[C@@H](O[C@@H]2O[C@H](C)C[C@@H](N(C)C)[C@H]2O)[C@](C)(OC)C[C@@H](C)CN(C)[C@H](C)[C@@H](O)[C@]1(C)O
8 (≈ 10.5 µM)	2 (≈ 2.62 µM)	0.5 (≈ 0.655 µM)	8 (≈ 10.5 µM)	4 (≈ 5.24 µM)	0.03 (≈ 0.0393 µM)	CC[C@H]1OC(=O)[C@H](C)[C@@H](O[C@H]2C[C@@](C)(OC)[C@@H](OC)[C@@H](C)O2)[C@H](C)[C@@H](O[C@@H]2O[C@H](C)C[C@@H](N(C)C)[C@H]2O)[C@](C)(O)C[C@@H](C)N(C)C[C@H](C)[C@@H](O)[C@]1(C)O
32 (≈ 39.7 µM)	8 (≈ 9.94 µM)	4 (≈ 4.97 µM)	32 (≈ 39.7 µM)	8 (≈ 9.94 µM)	0.5 (≈ 0.621 µM)	CC[C@H]1OC(=O)[C@H](C)[C@@H](O[C@H]2C[C@@](C)(OC)[C@@H](OC)[C@@H](C)O2)[C@H](C)[C@@H](O[C@@H]2O[C@H](C)C[C@@H](N(C)C)[C@H]2O)[C@](C)(OC)C[C@@H](C)N(C)C[C@H](C)[C@@H](OC)[C@]1(C)OC
0.5 (≈ 0.668 µM)	0.25 (≈ 0.334 µM)	< 0.06	4 (≈ 5.34 µM)	1 (≈ 1.34 µM)	0.03 (≈ 0.0401 µM)	CC[C@H]1OC(=O)[C@H](C)[C@@H](O[C@H]2C[C@@](C)(OC)[C@@H](O)[C@H](C)O2)[C@H](C)[C@@H](O[C@@H]2O[C@H](C)C[C@H](N(C)C)[C@H]2O)[C@](C)(O)C[C@@H](C)CN(C)[C@H](C)[C@@H](O)[C@]1(C)O [AZITHROMYCIN]
